According to US6566355B1 (Hoffmann-La Roche Inc., priority 1991, dated 2003):
Where a name gives a salt, the structure may show the parent alone. Read-outs that look alike come from different tables or passages of the source.

Columns and labels:
β-lactamase = target: T1, β-lactamase (Citrobacter freundii, UniProt P05193); experiment: biochemical
T1 construct: Various β-lactamases can be isolated from penicillin- or cephalosporin-resistant bacterial strains such as; endogenous in cells; host or cells: Citrobacter freundii 1203 (enzyme purified from the crude cell extract, after ampicillin induction when necessary)
Procedure: A. Isolation of the β-lactamases
Various β-lactamases can be isolated from penicillin- or cephalosporin-resistant bacterial strains such as Klebsiella pneumoniae NCTC 418, Proteus vulgaris 1028, Bacillus licheniformis 749/C, Escherichia coli SN01 and Citrobacter freundii 1203. For this purpose, the corresponding strains are cultivated in Tryptic Soy Broth (Difco) and harvested by centrifugation in the last logarithmic growth phase (when necessary 50-100 mg/l of ampicillin are added to the medium towards the end of the log-phase in order to induce the β-lactamase). The thus-obtained bacterial mass is treated with 20 mM Tris-HCl buffer (pH 7.0); the cells are broken open with a French press while cooling. The mixture is centrifuged (20,000 r/min.) for 20-30 minutes and a clear crude extract is obtained.
B. Determination of the β-lactamase activity
The determination of the activity of the isolated β-lactamases can be carried out according to the method of O'Callaghan, C. H. et al. [Antimicr. Ag. Chemother., 1, 283-288 (1972)] using the chromogenic cephalosporin nitrocefin (87/312 from Glaxo). The requisite test batch contains per ml of water: 50 mM phosphate buffer (pH 7.0), 0.1 mM nitrocefin and sufficient enzyme (β-lactamase) to achieve a ΔA/min. of about 0.1. The cleavage of the substrate, which is accompanied by a change in colour, is effected at 37° C. and is followed quantitatively at 482 nm using a spectral photometer.
C. Determination of the β-lactamase-inhibiting activity of the compounds of general formula I
The above-described cleavage of the chromogenic substrate by β-lactamases (test B.) can be inhibited by the addition of compounds of general formula I (inhibitors). […] As a measurement for the affinity of the particular tested inhibitor to the β-lactamase, which is a measurement of the strength of the inhibitor, there serves that concentration which inhibits by 50% (IC 50 in nM) the cleavage of the substrate (nitrocefin) effected under the above test conditions (test B) in the absence of an inhibitor. […] The determination of the IC50 was effected by means of a graph.
(Test organism: Citrobacter freundii)

Citrobacter freundii = experiment: MIC in vitro of a 1:4 combination of ceftriaxone with a compound of formula I (test D); format: cell-based; settings: 1:4 combination of ceftriaxone with the compound
Procedure: D. Determination of the β-lactamase-inhibiting activity by combination of a compound of general formula I with ceftriaxone
The minimum inhibitory concentration in vitro (MIC in μg/ml) of a 1:4 combination of ceftriaxone with a compound of formula I against Citrobacter freundii is measured and compiled in Table 2 hereinafter.

[1] = IC 50 nM, isolated β-lactamase of Citrobacter freundii, substrate nitrocefin 0.1 mM, 15 minutes pre-incubation with inhibitor, 37° C., pH 7.0

T1 sequence (P05193 21-381): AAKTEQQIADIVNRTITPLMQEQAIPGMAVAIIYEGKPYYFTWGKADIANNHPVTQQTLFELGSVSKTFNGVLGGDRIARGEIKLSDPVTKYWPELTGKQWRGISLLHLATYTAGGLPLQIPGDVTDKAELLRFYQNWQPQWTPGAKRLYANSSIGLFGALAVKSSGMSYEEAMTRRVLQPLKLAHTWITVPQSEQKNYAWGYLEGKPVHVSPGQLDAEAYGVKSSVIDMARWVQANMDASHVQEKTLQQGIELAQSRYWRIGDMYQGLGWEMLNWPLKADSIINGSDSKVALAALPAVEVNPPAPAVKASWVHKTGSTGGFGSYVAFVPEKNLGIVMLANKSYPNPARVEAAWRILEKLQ

SMILES	IC50 (β-lactamase; [1])	MIC (Citrobacter freundii)	IC50 (β-lactamase)	IC50 (β-lactamase; isolated β-lactamase of Citrobacter freundii, substrate nitrocefin 0.1 mM, 15 minutes pre-incubation with inhibitor, 37° C., pH 7.0, read-out: IC 50 nM)
O=C(CNc1ccc(O)cc1)N1CC[C@@H]2[C@H]1C(=O)N2S(=O)(=O)[O-].[Na+] [6(v), (1S,5R)-2-(4-Hydroxy-phenylaminoacetyl)-7-oxo-2,6-diazabicyclo[3.2.0]heptane-6-sulfonic acid sodium salt]	3.5 nM	8 µg/mL		
O=C(/C=C/c1cccs1)N1CC[C@@H]2[C@H]1C(=O)N2S(=O)(=O)O [8(a), (1S,5R)-2-[(E)-3-(2-Thienyl)acryloyl]-7-oxo-2,6-diaza-bicyclo[3.2.0]heptane-6-sulphonic acid]		4 µg/mL	75 nM	
O=C(Cn1cnnn1)N1CC[C@@H]2[C@H]1C(=O)N2S(=O)(=O)[O-].[Na+] [8(b), (1S,5R)-7-Oxo-2-(1H-tetrazol-1-ylacetyl)-2,6-diazabicyclo[3.2.0]heptane-6-sulphonic acid sodium salt]	500 nM	1 µg/mL		
O=C(/C=C/c1c[nH]cn1)N1CC[C@@H]2[C@H]1C(=O)N2S(=O)(=O)[O-].[Na+] [8(d), (1S,5R)-2-[(E)-3-(4-Imidazolyl)acryloyl]-7-oxo-2,6-diazabicyclo[3.2.0]heptane-6-sulphonic acid sodium salt]	34 nM	0.5 µg/mL		
O=C(CCc1ccccc1)N1CC[C@@H]2[C@H]1C(=O)N2S(=O)(=O)[O-].[Na+] [11(b), (1S,5R)-7-Oxo-2-(3-phenyl-propionyl)-2,6-diazabicyclo[3.2.0]heptane-6-sulphonic acid sodium salt]	573 nM	16 µg/mL		
O=C(/C=C/c1ccc(OS(=O)(=O)[O-])c(OS(=O)(=O)[O-])c1)N1CC[C@@H]2[C@H]1C(=O)N2S(=O)(=O)[O-].[Na+].[Na+].[Na+] [11(c), (1S,5R)-2-[(E)-3,4-Bis(sulphoxy)cinnamoyl]-7-oxo-2,6-diazabicyclo[3.2.0]heptane-6-sulphonic acid sodium salt]	1 nM	16 µg/mL		
O=C1[C@@H]2[C@@H](CCN2S(=O)(=O)Cc2ccccc2)N1S(=O)(=O)[O-].[Na+] [11(d), (1S,5R)-2-(Benzylsulphonyl)-7-oxo-2,6-diazabicyclo [3.2.0]heptane-6-sulphonic acid sodium salt]	142 nM	4 µg/mL		
Nc1ccc(/C=C/C(=O)N2CC[C@@H]3[C@H]2C(=O)N3S(=O)(=O)O)cc1 [12(a), (1S,5R)-2-[(E)-p-Aminocinnamoyl]-7-oxo-2,6-diazabicyclo[3.2.0]heptane-6-sulphonic acid]		4 µg/mL	105 nM	
O=C(CSc1nc[nH]n1)N1CC[C@@H]2[C@H]1C(=O)N2S(=O)(=O)O [12(b), (1S,5R)-7-Oxo-2-(1,2,4-triazol-3-yl-thioacetyl)-2,6-diazabicyclo[3.2.0]heptan-6-sulphonic acid]		2 µg/mL		115 nM
COc1cc(CNC(=O)N2CC[C@@H]3[C@H]2C(=O)N3S(=O)(=O)[O-])on1.[Na+] [17(aa), (1S,5R)-2-[3-Methoxy-isoxazol-5-ylmethylcarbamoyl]-7-oxo-2,6-diazabicyclo[3.2.0]heptane-6-sulfonic acid sodium salt]	75 nM	0.5 µg/mL		
O=C(NCc1ccc(O)cc1)N1CC[C@@H]2[C@H]1C(=O)N2S(=O)(=O)[O-].[Na+] [17(ab), (1S,5R)-2-[4-Hydroxy-benzylcarbamoyl]-7-oxo-2,6-diazabicyclo[3.2.0]heptane-6-sulfonic acid sodium salt]	194 nM	1 µg/mL		
O=C(NC1CCCC1)N1CC[C@@H]2[C@H]1C(=O)N2S(=O)(=O)[O-].[Na+] [17(ac), (1S,5R)-2-Cyclopentylcarbamoyl-7-oxo-2,6-diazabicyclo[3.2.0]heptane-6-sulfonic acid sodium salt]	70 nM	1 µg/mL		
O=C1OCCN1NC(=O)N1CC[C@@H]2[C@H]1C(=O)N2S(=O)(=O)[O-].[Na+] [17(ad), (1S,5R)-7-Oxo-2-[2-oxo-oxazolidin-3-ylcarbamoyl]-2,6-diazabicyclo[3.2.0]heptane-6-sulfonic acid sodium salt]	75 nM	2 µg/mL		
Nc1nc(CNC(=O)N2CC[C@@H]3[C@H]2C(=O)N3S(=O)(=O)[O-])cs1.[Na+] [17(ae), (1S,5R)-2-[2-Amino-thiazol-4-ylmethylcarbamoyl]-7-oxo-2,6-diazabicyclo[3.2.0]heptane-6-sulfonic acid sodium salt]	200 nM	1 µg/mL		
O=C(NCc1nc(C2CC2)no1)N1CC[C@@H]2[C@H]1C(=O)N2S(=O)(=O)[O-].[Na+] [17(af), (1S,5R)-2-(3-Cyclopropyl-1,2,4-oxadiazol-5-ylmethylcarbamoyl)-7-oxo-2,6-diazabicyclo[3.2.0]heptane-6-sulfonic acid sodium salt]	107 nM	1 µg/mL		
O=C1C[C@H](NC(=O)N2CC[C@@H]3[C@H]2C(=O)N3S(=O)(=O)[O-])C(=O)N1.[Na+] [17(ag), (1S,5R)-7-Oxo-2-[(S)-2,5-dioxo-pyrrolidin-3-ylcarbamoyl]-2,6-diazabicyclo[3.2.0]heptane-6-sulfonic acid sodium salt]	337 nM	1 µg/mL		
O=C(NCCc1ccccn1)N1CC[C@@H]2[C@H]1C(=O)N2S(=O)(=O)[O-].[Na+] [17(b), (1S,5R)-7-Oxo-2-[2-(pyridin-2-yl)ethylcarbamoyl]-2,6-diazabicyclo[3.2.0]heptane-6-sulphonic acid sodium salt]	285 nM	2 µg/mL		
O=C(NCc1ccccn1)N1CC[C@@H]2[C@H]1C(=O)N2S(=O)(=O)[O-].[Na+] [17(c), (1S,5R)-7-Oxo-2-[(2-pyridylmethyl)carbamoyl]-2,6-diazabicyclo[3.2.0]heptane-6-sulphonic acid sodium salt]	400 nM	2 µg/mL		
O=C(NNc1ccccc1)N1CC[C@@H]2[C@H]1C(=O)N2S(=O)(=O)O [17(d), (1S,5R)-7-Oxo-2-(2-phenyl-carbazoyl)-2,6-diazabicyclo[3.2.0]heptane-6-sulphonic acid sodium salt]	197 nM	2 µg/mL		
O=C(NCc1ccc(O)c(O)c1)N1CC[C@@H]2[C@H]1C(=O)N2S(=O)(=O)[O-].[Na+] [17(e), (1S,5R)-2-(3,4-Dihydroxybenzylcarbamoyl)-7-oxo-2,6-diazabicyclo[3.2.0]heptane-6-sulphonic acid sodium salt]	250 nM	2 µg/mL		
Cc1nnc(O)c(CNC(=O)N2CC[C@@H]3[C@H]2C(=O)N3S(=O)(=O)O)c1C [17(f), (1S,5R)-2-(3-Hydroxy-5,6-dimethyl-pyridazin-4-yl-methylcarbamoyl)-7-oxo-2,6-diazabicyclo[3.2.0]heptane-6-sulphonic acid sodium salt]	193 nM	2 µg/mL		
NS(=O)(=O)c1ccc(CNC(=O)N2CC[C@@H]3[C@H]2C(=O)N3S(=O)(=O)[O-])cc1.[Na+] [17(g), (1S,5R)-7-Oxo-2-(4-sulphamoyl-benzylcarbamoyl)-2,6-diazabicyclo[3.2.0]heptane-6-sulphonic acid sodium salt]	427 nM	2 µg/mL		
O=C(NCCc1ccc(O)c(O)c1)N1CC[C@@H]2[C@H]1C(=O)N2S(=O)(=O)[O-].[Na+] [17(k), (1S,5R)-2-[2-(3,4-Dihydroxyphenyl)ethylcarbamoyl]-7-oxo-2,6-diazabicyclo[3.2.0]heptane-6-sulphonic acid sodium salt]	109 nM	16 µg/mL		
COc1ccc(NC(=O)N2CC[C@@H]3[C@H]2C(=O)N3S(=O)(=O)[O-])cc1.[Na+] [17(l), (1S,5R)-2-(4-Methoxyphenylcarbamoyl)-7-oxo-2,6-diazabicyclo[3.2.0]heptane-6-sulphonic acid sodium salt]	437 nM	4 µg/mL		
O=C(NCC1CCCCC1)N1CC[C@@H]2[C@H]1C(=O)N2S(=O)(=O)[O-].[Na+] [17(m), (1S,5R)-2-Cyclohexylmethylcarbamoyl-7-oxo-2,6-diazabicyclo[3.2.0]heptane-6-sulphonic acid sodium salt]	359 nM	16 µg/mL		
